The text below walks through data of patent US20030162727A1, “Use of cyp1b1inhibitors for treating cancer” (priority 2000, published 2003).

For one series, the system named is V79MZ cells. Nature of the series: cells. The conditions noted are these: for IC50: read-out: IC50 V79MZ (control vector). Here is the method: (§1) A Chinese hamster […] fibroblast cell line (V79MZ) and a clone expressing human CYP1B1 (V79MZh1B1), were grown at 37° C., 5%CO2 and at 90% saturated humidity, in DMEM (Dulbecco's modified eagles medium) high glucose type supplemented with 1 mM sodium pyruvate, 10% fetal calf serum, 100 U penicillin/ml and 100 μg streptomycin/ml. Neither cell line expresses endogenous P450s, although cytochrome P450 reductase is present in both cell lines. The parental and CYP1B1 expressing cell lines double in cell number every 10-12 h and were sub-cultured at 1:50 ratio (i.e. 1 ml of cells to 50 ml of fresh media) every 4-5 days. The cells were not allowed to reach confluency at any time, to ensure optimal cell physiological conditions and maximal cytochrome P450 activity. Cells were routinely used at 3rd-5th passage for all experiments.
(§2) Docetaxel was obtained from Rhone-Poulenc Rorer. Optimal growth conditions were established. The same conditions were used for both cell lines; V79MZ and V79MZh1B1 cells at 60-80% confluence were harvested and seeded at 0.5-1×10^3 cells per well in 96 well culture plates. […] Cells treated with solvent alone acted as a negative control.
(§3) Enzyme inhibition studies were undertaken by co-administration of docetaxel and the known P450 CYP1 inhibitor ANF (Sigma) at different concentration in the media. Stock solutions of ANF (1 mM, 10 mM and 100 mM) were dissolved in DMSO and added to the media to give final concentrations of 1 μM, 10 μM and 100 μM ANF (in each case the final concentration of DMSO in media was 0.1%). Following 24 h exposure to each drug (with or without inhibitor), the media were removed and replaced with fresh media without drug. In this study, cells were then grown for three doubling times (36 h) with the media changed at 24 hr. […] Media were removed from the wells and replaced with 200 μl of fresh media, followed by addition of 50 μl of MTT solution (50 mg/ml of MTT (Sigma) in sterile PBS), the cells were incubated at 37° C. in a humidified atmosphere with 5%CO2/95% air for 4 h. The MTT containing media was then removed and 200 μl of DMSO plus 25 μl of glycine buffer (0.1 M glycine/0.1 M NaCl pH 10.5) added to the cells in each well. This procedure overcomes any effect that cell density or culture medium may have on the absorption spectrum. The absorbance of the formazan produced by the viable cells was measured once for each well at 540 nm on a Labsystems EMS microplate reader (Life Sciences International). To calculate the cell viability cells treated with solvent alone were assigned a value of 100% absorbance indicating zero cytotoxicity, i.e. 100% viability. The cytotoxic profile of each drug was evaluated in triplicate 96 well plates. Each plate included several controls (media only, cells only and cells treated with solvent alone). The 96 well plate format allowed eight concentrations of the appropriate drug per plate, with eight replicates (i.e. eight separate wells) per drug concentration, i.e. 8 measurements of absorbance for each concentration of drug per plate. There were three triplicate plates per experiment resulting in a total of 24 measurements of absorbance per concentration of drug.

A short description of another series: in vitro. The conditions noted are these: Chinese hamster. Here is the method: as §1, §2, §3
The next series has as its system V79MZh1B1 cells. Nature of the series: in vitro. As to conditions: for cytotoxicity in CYP1B1 expressing V79MZh1B1 cells: 24 h exposure, ANF at 1, 10 and 100 μM. Here is the method:
as §1, §2, §3

For series [1] the following is noted: fold less cytotoxic than paclitaxel; cited from earlier work.
In series [2] the target is T1, CYP1B1 (Homo sapiens, UniProt Q16678).
T1 sequence (Q16678 1-543): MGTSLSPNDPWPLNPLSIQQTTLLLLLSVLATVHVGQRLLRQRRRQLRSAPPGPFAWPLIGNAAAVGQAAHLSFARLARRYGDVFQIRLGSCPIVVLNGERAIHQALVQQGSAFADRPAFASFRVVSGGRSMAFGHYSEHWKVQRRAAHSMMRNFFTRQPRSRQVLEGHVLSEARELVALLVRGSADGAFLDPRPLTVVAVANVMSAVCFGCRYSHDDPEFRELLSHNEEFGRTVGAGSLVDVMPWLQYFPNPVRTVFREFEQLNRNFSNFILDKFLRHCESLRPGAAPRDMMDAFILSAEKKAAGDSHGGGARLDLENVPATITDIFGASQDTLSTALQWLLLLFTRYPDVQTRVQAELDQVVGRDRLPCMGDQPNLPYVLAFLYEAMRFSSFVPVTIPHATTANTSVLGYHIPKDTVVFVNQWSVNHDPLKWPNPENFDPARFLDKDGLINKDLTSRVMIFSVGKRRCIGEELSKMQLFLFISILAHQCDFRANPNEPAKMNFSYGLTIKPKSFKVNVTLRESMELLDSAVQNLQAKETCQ
Kind of series: Inhibition of EROD activity mediated by cDNA expressed cytochrome 1B1. The conditions noted are these: for Ki: Ki Values, Dixon re-plots of EROD activity, mean; for inhibition at 100 μM: human, pH 7.4. An excerpt:
Recent immunohistochemical analysis of P4501B1 protein in a variety of solid tumours identified tumour-specific enzyme expression (Murray et al, 1998). This provides a mechanism of resistance to currently used anticancer agents, as well as, an approach for targeted prodrug therapy. 7-ethoxyresorufin deethylase activity (EROD) was used to define interactions with cytochrome 1B1 (CYP1B1). 7-Ethoxyresorufin is a known substrate for P4501B1. […] For this purpose, inhibition constants (Ki) have been calculated using in vitro kinetics from CYP1B1-mediated EROD activity. EROD activity and assay has been described previously by various authors (Lubet et al., 1985, Arch. Biochem. Biophys. 238: pp 43-48; Gentest Corporation, 6 Henshaw St., Woburn, Mass. 01801 USA, data sheet given with CYP1B1, catalogue number P220). 7-Ethoxyresorufin is enzymatically deethylated to a product called resorufin. The appearance of resorufin was monitored by a fluorescence detector set at 550 nm and 582 nm (excitation and emission wavelengths). […] Incubations contained: phosphate buffer at pH 7.4, 7-ethoxyresorufin, CYP1B1 Supersomes from Gentest Co (catalogue number P220) and nicotine adenine dinucleotide phosphate (NADP) as cofactor.
The metabolism of anti-cancer drugs by CYP1B1 was studied using an inhibition of EROD assay. […] Ki values were determined by the Dixon's replots: see Table 2.

For series [3], the target named is T1, CYP1B1. Nature of the series: Biotransformation studies with CYP1B1. The conditions noted are these: metabolites produced by CYP1B1 incubation but not control incubations.
Series [4] deals with CYP1B1 in kidney tumour samples. Kind of series: Kidney tumour assay, EROD metabolism with and without inhibitor. It counts as biochemical. How it is done: The effect of a CYP1B1 inhibitor was confirmed in an assay using kidney tumour samples. A buffer and NADP regenerating system was allowed to equilibrate at 37° C. and EROD (5 μM final concentration) was then added. This was followed by the addition of either P450 supersomes (control) or the appropriate tumour sample (1 mg). Supersomes were incubated for 15 minutes and tumour samples for 40 minutes.

Setting [5] is: Cricetulus griseus, V79MZ, 24 h.
Setting [6] is: 24 h drug exposure, MTT, concentration at which 50% of cells are viable.

The structures appear in SMILES notation. Values joined by “and” are separate entries in the source; they are usually repeats but may differ in a detail not shown here. Equal values may be shown once. Read-outs that look alike come from different tables or passages of the source.

As a reminder, the IC50 is the concentration that gives 50% inhibition. With `O=c1[nH]cc(F)c(=O)[nH]1` [5-Fluorouracil], the IC50 in the series with V79MZ cells (setting [5]) came to 70 µM. Moreover, the IC50 at 24 h in “in vitro” worked out at 80 µM. Further, the “difference in cytotoxicity between CYP1B1 expressing and non-expressing cells” value in the series on V79MZh1B1 cells was “no significant difference”.

Regarding `CC(=O)O[C@H]1C(=O)[C@@]2(C)[C@H]([C@H](OC(=O)c3ccccc3)[C@]3(O)C[C@H](OC(=O)[C@H](O)[C@@H](NC(=O)c4ccccc4)c4ccccc4)C(C)=C1C3(C)C)[C@]1(OC(C)=O)CO[C@@H]1[C@@H](O)[C@@H]2O` [6-hydroxytaxol], the “cytotoxicity relative to parent compound paclitaxel” value in series [1] is recorded as 30 fold.

`N.N.O=C([O-])C1(C(=O)[O-])CCC1.[Pt+2]` [Carboplatin]: the IC50 stood at 80 µM in the series with V79MZ cells (setting [6]) and 100 µM with V79MZh1B1 cells (read-out: IC50 V79MZhB1, 24 h drug exposure, MTT, CYP1B1 expressing cells). In addition, in the series on V79MZh1B1 cells (V79MZh1B1 compared with V79MZ, MTT), the “difference in cytotoxicity between CYP1B1 expressing and non-expressing cells” value was “no significant difference”.

Take `N.N.[Cl][Pt][Cl]` [Cisplatin]: in the series with V79MZ cells (setting [6]), the IC50 was found to be 4.4 µM.

Take `O=P1(N(CCCl)CCCl)NCCCO1` (centres unmarked) [Cyclophosphamide]: the “cytotoxicity in parental V79MZ cells” value in the series on V79MZ cells (24 h exposure, MTT, ANF at 1, 10 and 100 μM) is reported as “No cytotoxicity”. Besides, the “cytotoxicity in CYP1B1 expressing V79MZh1B1 cells” value in the series with V79MZh1B1 cells (MTT) is recorded as “No cytotoxicity”. For the same molecule, the “inhibition of CYP1B1 activity, initial screening, in words” value at CYP1B1 [2] (initial screening, 1 μM ethoxyresorufin, 100 μM agent) is recorded as “did not inhibit CYP1B1 activity”.

Usually Ki stands for the equilibrium dissociation constant of an inhibitor or competing ligand from its target. Read a high Ki as a looser hold on the target. One may read the inhibition as the share of the control response that was lost under treatment. A high value points to strong suppression. As to `COc1cccc2c1C(=O)c1c(O)c3c(c(O)c1C2=O)C[C@@](O)(C(C)=O)C[C@@H]3O[C@H]1C[C@H](N)[C@H](O)[C@H](C)O1` [Daunomycin], on CYP1B1 [2], the Ki was 2.1 µM and 2.12 µM; the inhibition at 100 μM lay within 53 to 99%.

Turning to `CC(=O)O[C@@]12CO[C@@H]1C[C@H](O)[C@@]1(C)C(=O)[C@H](O)C3=C(C)[C@@H](OC(=O)[C@H](O)[C@@H](NC(=O)OC(C)(C)C)c4ccccc4)C[C@@](O)([C@@H](OC(=O)c4ccccc4)[C@H]21)C3(C)C` [Docetaxel], the IC50 with V79MZ cells (setting [5]) stood at 0.022 µM. The IC50 at 24 h in the series “in vitro” turned out to be 0.1 µM. For the same molecule, the “difference in cytotoxicity between CYP1B1 expressing and non-expressing cells” value in the series on V79MZh1B1 cells is recorded as “at least four-fold”. Moreover, at CYP1B1 [2], the “Inhibition Type” value is reported as “competitive”, the Ki was 28 µM and the inhibition at 100 μM was 53 to 99%.

Consider `COc1cccc2c1C(=O)c1c(O)c3c(c(O)c1C2=O)C[C@@](O)(C(=O)CO)C[C@@H]3O[C@H]1C[C@H](N)[C@H](O)[C@H](C)O1` [Doxorubicin], for which the IC50 in the series on V79MZ cells (setting [5]) was found to be 0.08 µM. The molecule further returned an IC50 at 24 h in the series “in vitro” of 0.09 µM. In the series with V79MZh1B1 cells, the “difference in cytotoxicity between CYP1B1 expressing and non-expressing cells” value was “no significant difference”. At CYP1B1 [2], the Ki was 2.6 µM and 2.58 µM; the inhibition at 100 μM fell in the range of 53 to 99%.

As to `C[C@]12CC[C@@H]3c4ccc(O)cc4CC[C@H]3[C@@H]1CC[C@@H]2O` [Estradiol], the “Inhibition Type” value at CYP1B1 [2] is “competitive”.

As for `CC(=O)N1CCN(c2ccc(OCC3COC(Cn4ccnc4)(c4ccc(Cl)cc4Cl)O3)cc2)CC1` (centres unmarked) [Ketoconazole], at CYP1B1 [2], the “Inhibition Type” value was “non-competitive”; the inhibitory constant (Ki) is 0.3 µM and 0.27 µM.

`CC(=O)O[C@H]1C(=O)[C@@]2(C)[C@H]([C@H](OC(=O)c3ccccc3)[C@]3(O)C[C@H](OC(=O)[C@H](O)[C@@H](NC(=O)c4ccccc4)c4ccccc4)C(C)=C1C3(C)C)[C@]1(OC(C)=O)CO[C@@H]1C[C@@H]2O` [Paclitaxel]: the IC50 in the series with V79MZ cells (setting [5]) came out at 0.035 µM. Besides, the “difference in cytotoxicity between CYP1B1 expressing and non-expressing cells” value with V79MZh1B1 cells is on record as “no significant difference”. Further, on CYP1B1 [2], the Ki was found to be 7.85 µM and the inhibition at 100 μM was in the range of 53 to 99%. In addition, the “biotransformation by CYP1B1” value at CYP1B1 [3] is on record as “biotransformed by CYP1B1”.

Turning to `CC/C(=C(\c1ccccc1)c1ccc(OCCN(C)C)cc1)c1ccccc1` [Tamoxifen], on CYP1B1 [2], the Ki is 5 µM and 5.02 µM.

`C[C@]12CC[C@H]3[C@@H](CCC4=CC(=O)CC[C@@]43C)[C@@H]1CC[C@@H]2O` [Testosterone]: the “Inhibition Type” value at CYP1B1 [2] is “competitive”.

As for `O=c1cc(-c2ccccc2)oc2c1ccc1ccccc12` [α-naphthoflavone], the “cytotoxicity in CYP1B1 expressing V79MZh1B1 cells” value in the series with V79MZh1B1 cells (MTT) is “Neither cell line (parental or CYP1B1 expressing) showed cytotoxicity”. Moreover, the “CYP1B1 activity in metabolising EROD” value is on record as 145 fmol/min/mg protein in series [4] (kidney tumour Sample 1, plus 10 nM ANF (252 without)); 470 fmol/min/mg protein in series [4] (kidney tumour Sample 2, plus 10 nM ANF (993 without)); 570 fmol/min/mg protein in series [4] (kidney tumour Sample 3, plus 10 nM ANF (880 without)).
